Test results from patent US11795197B2, “Peptide compositions for immuno-oncology molecular imaging and targeted drug delivery” (Cedars-Sinai Medical Center, priority 2017, dated 2023).
Residues, ends and D or L forms follow the SMILES beside them. No end group written: not given here. K(CB-TE2A) = lysine carrying the CB-TE2A chelator (for 64Cu); Cy7 = near-infrared fluorescent dye for NIRF imaging; PEGn = polyethylene glycol (n units) spacer

Assays:
[1] = Solubility of the peptide; type: physicochemical
BT549 cells = assay: Cellular toxicity of LDLLDL peptide by microscopy; type: cell-based, human; settings: 0.1-1000 μM/mL, up to highest concentration tested
Description: (§1) A FPR-targeted peptide and its optical imaging probe were designed and synthesized: The inventors synthesized an FPR-targeted peptide agent Leu-Asp-Leu-Leu-Asp-Leu (LDLLDL: SEQ ID NO:1), which is an antagonist peptide for FPR1 receptor. The inventors have also developed an NIR optical imaging probe to evaluate the targeting capability. Specifically, the base peptide ligand was synthesized by the solid-phase method. After the peptide sequence was assembled on resin, the ivDDE protecting group was removed from the w-amino group of the lysine by treatment with hydrazine. The inventors tested varying concentrations (0.1-1000 μM/mL) of LDLLDL (SEQ ID NO:1) peptide in all four breast cancer cell types (BT474, BT549, MDA-MB-231 and MCF-7) to assess cellular toxicity.

BT474 cells [2] = assay: Cellular toxicity of LDLLDL peptide by microscopy; type: cell-based, human; settings: 0.1-1000 μM/mL, up to highest concentration tested
Description: as §1

MCF-7 cells [3] = assay: Cellular toxicity of LDLLDL peptide by microscopy; type: cell-based, human; settings: 0.1-1000 μM/mL, up to highest concentration tested
Description: as §1

MDA-MB-231 cells [4] = assay: Cellular toxicity of LDLLDL peptide by microscopy; type: cell-based, human; settings: 0.1-1000 μM/mL, up to highest concentration tested
Description: as §1

[5] = system: 4T1 breast cancer tumor xenograph; assay: In vivo fluorescence imaging in tumor xenograph mice; parameters: species or system Balb/c mice; settings: 30 ul of peptide (2 nMoles), within 6 hr, mammary gland tumors
Experimental: (§2) FIG. 10 depicts one of 10 mice experiments in accordance with various embodiments. Ten mice (Balb/c mice) were implanted with breast cancer cells (4T1) to develop breast cancer tumor xenograph model. The tumors were allowed to grow for 4 weeks before the mice were injected with 30 ul of peptide (2 nMoles). The animals were imaged using mouse fluorescence imaging after 1, 2, 3, 4, 6 hr.

BT474 cells [6] = assay: Cellular uptake of FPR peptide by near infrared fluorescence imaging; type: cell-based, human
Experimental: (§3) To study the ability of the FPR peptide to internalize and fluorescently labeled cancer and macrophage cells, various breast cancer cell lines were treated with the peptide (5 uMol/uL) for 4 hrs. […] Fluorescence uptake was not observed in the normal human mammary epithelial cells (HEMC-control), as expected, since there is no expression of FPR receptor for HEMC.
(§4) LDLLDL-Cy7 ([SEQ ID NO:1]-Cy7) was used to treat five cancer cell lineages (MDA-MB-231, BT549, HCC1500, BT474, and MCF-7) and normal human mammary epithelial cell (HEMC) for 3 hrs at the concentrations of 5 and 10 μM/mL. After washing 3 times with cold PBS, all cells were imaged using near infrared fluorescence imaging and target specificity of the FPR peptide was evaluated.

HCC1500 cells = assay: as above; type: cell-based, human
Experimental: as §3, §4

MCF-7 cells [7] = assay: as above; type: cell-based, human; settings: 3 hrs, 5 and 10 μM/mL, FIG. 4
Experimental: as §3, §4

MDA-MB-231 cells [8] = assay: as above; type: cell-based, human; settings: 3 hrs, 5 and 10 μM/mL, FIG. 4
Experimental: as §3, §4

[9] = system: normal human mammary epithelial cell (HEMC); assay: as above; type: cell-based
Experimental: as §3, §4

[10] = system: MDA-MB-231 breast cancer tumor xenograph; assay: In vivo fluorescence imaging and organ biodistribution in tumor xenograph mice
Experimental: FIG. 5 depicts in accordance with various embodiments of the invention, in vivo fluorescent image of xenograft mice after 6 hours of tail vein injection. Mice were injected with fluorescent dye (Cy7) only (left panel), and peptide-Cy7 (right panel).
FIG. 6 depicts in accordance with various embodiments of the invention, the biodistribution in tumor-bearing mice after 7 hours of tail vein injection. Mice were injected with fluorescent dye only (left panel), and peptide LDLLDL-Cy7 (right panel)([SEQ ID NO:1]-Cy7).
Ten mice were implanted with breast cancer cells (MDA-MB-231) to develop breast cancer tumor xenograph models. The tumors were allowed to grow for 4 weeks before the mice were injected with 30 ul of peptide (2 nMoles). The animals were imaged using mouse fluorescence imaging after 1, 2, 3, 4, and 6 hours. FIG. 5 show the results of one of those mice experiments. […] After 7 hours the animals were sacrificed and organs extracted and imaged.

[11] = system: E0771 breast cancer tumor xenograph; assay: In vivo fluorescence imaging in tumor xenograph mice; parameters: species or system C57BL/6 mice; settings: 30 ul of peptide (2 nMoles), within 6 hr, rear bilateral flank tumors
Experimental: as §2, with “FIG. 9” for “FIG. 10”, “mice (C57BL/6” for “mice (Balb/c”, “cells (E0771)” for “cells (4T1)”

[12] = system: macrophage cell line RAW264.7; assay: Cellular uptake of FPR peptide by near infrared fluorescence imaging; type: cell-based; settings: peptide 5 uMol/uL, 4 hrs
Experimental: as §3

human TNBC cells = assay: Target specificity of the FPR peptide by near infrared fluorescence imaging; type: cell-based; settings: 3 hrs, 5 and 10 μM/mL
Experimental: as §4

[13] = system: xenograft breast cancer model with ANXA1 overexpression; assay: PET uptake in breast cancer xenograft model with ANXA1 overexpression; type: in vivo, mice
Description: (§5) Without being bound to any particular theory, the inventors believe that ANXA1 is associated with tumorigenesis and progression, and the synthesized peptide imaging probe can be used as a surrogate for monitoring the tumor expression with ANXAL. To characterize target specificity, the inventors developed the breast cancer xenograft model with ANXA1 overexpression as well as an ANXA1-knockdown model using a shRNA lentiviral vector technique. […] The inventors assess the pharmacokinetic profile and tumor specific targeting potency of the new imaging probe, and its effectiveness in evaluation of tumorigenesis and progression of aggressive breast cancer. See FIG. 8 for experimental design.
Breast cancer xenograft model: In vitro studies described above identified the expression of ANXA1/FPR1 for all tested cells. […] Body weight and tumor volume is measured weekly. […]
Blood clearance and biodistribution: i) Blood clearance: After anesthesia (isoflurane 2-3%), 2 groups of 5 mice each are injected with radiolabeled LDLLDL-^64Cu ([SEQ ID NO:1]-^64Cu) (˜5 μCi) via tail vein. Retro-orbital blood samples (25 μL) are collected at various time points such as 5, 15, 30, 60, 120, 240 min and 24 h after injection and radioactivity of all samples are counted in a gamma counter (Perkin-Elmer). […] At 1 h, 2 h, 4 h, 24 h after injection, mice are scanned by small-animal PET followed by tissue radioactivity assay. […]

tumor-expressing ANXA1 = assay: In vitro target binding specificity in breast cancer cell models; type: cell-based; settings: human breast cancer cell models
Experimental: In vitro target specificity binding is evaluated in two steps: Step 1: Characterize the ANXA1/FPR1 expression baseline by examining expression levels of FPR1 and ANXA1 in five human breast cancer cell lines, MDA-MB-231, HCC1500, BT549, MCF-7, BT474, and HEMC. Obtaining protein expression by performing IHC staining using the anti-ANXA1 and anti-FPR1 antibody. The cell lines with positive staining are identified. Further, the […] of ANXA1 and FPR1 are evaluated by western blotting and qRT-PCR. The correlation between FPR1 and ANXA1 are validated, and the cells with highest FPR1 and ANXA1 expression are selected for further in vivo study. The results establish the baseline of expression of ANXA1 and FPR1 in the tested breast cancer cell lines.
Step 2: Characterization of the binding specificity of the LDLLDL-^64Cu ([SEQ ID NO:1]-^64Cu) is tested on the cell lines described above. The cells are cultured in two groups of Petri dishes. […] The suspended cells are measured for radioactivity using a gamma-counter. Disintegrations per minute per cell are calculated and reported as the peptide uptake for each cell line. […] The cell-associated radioactivity is measured, and the binding affinity is determined by the Grafit software (Erithacus, Inc). […]

[14] = system: ANXA1-knockdown breast cancer xenograft; assay: PET uptake in ANXA1-knockdown xenograft model; type: in vivo, mice
Description: as §5, with “design. […]” for “design.”
Evaluation of tumor uptake in ANXA1 knockdown xenograft model: The inventors evaluate the effects of ANXA1 in regulating tumorigenesis and progression using the ANXA1-KD/control breast cancer xenograft model. […] Tumor growth and/or progression of the disease is monitored up to 8 weeks after cell inoculation. […] On completion of PET/CT at 24 h after injection, a tissue radioactivity assay is performed, and tissue radioactivity is calculated and expressed as decay-corrected percentage injected dose per gram of tissue (% ID/g). The tumor radioactivity and size are compared between ANXA1-KD tumor and ANXA1-SCR tumor. […]

[15] = organs extracted after 7 hours, FIG. 6

Compound: CC(C)C[C@H](NC(=O)[C@H](CC(=O)O)NC(=O)[C@H](CC(C)C)NC(=O)[C@H](CC(C)C)NC(=O)[C@H](CC(=O)O)NC(=O)[C@@H](N)CC(C)C)C(=O)O [LDLLDL, Leu-Asp-Leu-Leu-Asp-Leu] (H-LDLLDL-OH; N-terminus and C-terminus assumed)
- solubility [1]: superior
- cellular toxicity (cell death by microscopy) (BT549 cells): Apparent cell death could not be observed
- cellular toxicity (cell death by microscopy) (BT474 cells [2]): Apparent cell death could not be observed
- cellular toxicity (cell death by microscopy) (MCF-7 cells [3]): Apparent cell death could not be observed
- cellular toxicity (cell death by microscopy) (MDA-MB-231 cells [4]): Apparent cell death could not be observed

Compound: LDLLDL-Cy7
- fluorescence in the implanted tumors [5]: intense fluorescence
- uptake of LDLLDL-Cy7 (BT474 cells [6]; 3 hrs, 5 and 10 μM/mL, FIG. 4): weak uptake
- cell associated fluorescence (BT474 cells [6]; peptide 5 uMol/uL, 4 hrs, Her2 line): cell associated fluorescence
- uptake of LDLLDL-Cy7 (HCC1500 cells; 3 hrs, 5 and 10 μM/mL, FIG. 4): substantial uptake
- cell associated fluorescence (HCC1500 cells; peptide 5 uMol/uL, 4 hrs, ER-positive luminal line): cell associated fluorescence
- uptake of LDLLDL-Cy7 (MCF-7 cells [7]): weak uptake
- uptake of LDLLDL-Cy7 (MDA-MB-231 cells [8]): substantial uptake
- fluorescence uptake of LDLLDL-Cy7 ([9]; 3 hrs, 5 and 10 μM/mL, FIG. 4): no fluorescence uptake
- fluorescence uptake ([9]; peptide 5 uMol/uL, 4 hrs, control without FPR expression): not observed
- fluorescence in the rest of the organs [10, 15]: no significant fluorescence
- uptake in the tumors (extracted organs imaged) [10, 15]: strong uptake
- fluorescence in the implanted tumors ([10]; tail vein injection, 6 hours after injection, FIG. 5): intense fluorescence
- fluorescence in the implanted tumors [11]: intense fluorescence
- uptake of the peptide [12]: substantial uptake
- binding affinity (human TNBC cells): High binding affinity

Compound: LDLLDL-^64Cu (LDLLDL-{PEGn-K(CB-TE2A)}; also: 64Cu chelated by CB-TE2A)
- uptake in PET image studies [13]: significantly high uptake
- targeting specificity and sensitivity (tumor-expressing ANXA1): excellent specificity and sensitivity
- uptake of the peptide [14]: reduced uptake
